Patent US12338270B2, “Pharmaceutical composition comprising polypeptide” (D&D Pharmatech Inc., priority 2018, dated 2025)
Positions of bridges follow the written chain, without caps; N, C: chain ends. Non-standard residues stand in square brackets, D forms with d. Residues, ends and D or L forms follow the SMILES beside them. No end group written: not given here. Aib = CC(C)(N)C(=O)O

What was measured:
[1] = molecular target: human glucagon GLP-1 receptor (Homo sapiens, UniProt P43220); assay: cell-based
Procedure: Thereafter, the cells were incubated for 4 hours under conditions of a temperature of 37° C. in a CO2 incubator.

[2] = animal experiment on anti-obesity effect of Example 1; format: in vivo; details: no details
[3] = molecular target: T1, Pancreatic lipase (Homo sapiens, UniProt P16233); details: background statement; cited from earlier work
T1 sequence (P16233 17-465): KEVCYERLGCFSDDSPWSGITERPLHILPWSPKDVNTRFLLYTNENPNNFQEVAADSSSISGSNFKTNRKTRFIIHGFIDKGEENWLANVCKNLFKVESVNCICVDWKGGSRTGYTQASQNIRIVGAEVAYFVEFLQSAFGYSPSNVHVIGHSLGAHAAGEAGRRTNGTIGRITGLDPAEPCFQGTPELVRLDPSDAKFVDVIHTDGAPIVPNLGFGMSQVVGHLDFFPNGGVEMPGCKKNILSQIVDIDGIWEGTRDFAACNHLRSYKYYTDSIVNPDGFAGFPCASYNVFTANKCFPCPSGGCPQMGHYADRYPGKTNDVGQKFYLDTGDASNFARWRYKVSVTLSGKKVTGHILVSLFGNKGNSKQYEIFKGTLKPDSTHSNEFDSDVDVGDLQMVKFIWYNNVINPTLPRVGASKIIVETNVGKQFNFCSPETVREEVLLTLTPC

[4] = system: obesity animal model (C57BL/6 mice, 60% high-fat diet); assay: ipGTT in obesity model, Examples 2 and 6 (Experimental Example 6); format: in vivo; details: 2 g/kg glucose i.p. after 2 weeks of 20 nmol/kg s.c. once every other day; FIG. 6
Procedure: (§1) To check a preventing or therapeutic effect of the conjugates of Examples 2 and 6, which had different amino acid sequences, on obesity or diabetes, an animal model of obesity was prepared by feeding a 60% high-fat diet to normal C57BL/6 mice (approximately 6 weeks old) for approximately 24 weeks, and increasing the body weights of the mice to approximately 50 g in average. Thereafter, each of the conjugates of Examples 2 or 6 was administered by subcutaneous injection at a dose of 20 nmol/kg once every other day for 2 weeks. As the control, PBS was administered instead of the conjugates of Examples. For 2 weeks when the conjugates of Examples 2 or 6 were administered, changes in blood glucose with time were measured. Also, to perform an intraperitoneal glucose tolerance test (ipGTT), 2 g/kg of glucose was administered intraperitoneally after the 2-week administration of the drug, and changes in blood glucose with the elapse of time (0, 15, 30, 60, 90, and 120 minutes) were measured.

[5] = system: obesity animal model (C57BL/6 mice, 60% high-fat diet); assay: blood glucose in obesity model, Examples 2 and 6 (Experimental Example 6); format: in vivo; details: 20 nmol/kg s.c. once every other day for 2 weeks; FIG. 5
Procedure: as §1

Sequence of human glucagon GLP-1 receptor (P43220 24-463): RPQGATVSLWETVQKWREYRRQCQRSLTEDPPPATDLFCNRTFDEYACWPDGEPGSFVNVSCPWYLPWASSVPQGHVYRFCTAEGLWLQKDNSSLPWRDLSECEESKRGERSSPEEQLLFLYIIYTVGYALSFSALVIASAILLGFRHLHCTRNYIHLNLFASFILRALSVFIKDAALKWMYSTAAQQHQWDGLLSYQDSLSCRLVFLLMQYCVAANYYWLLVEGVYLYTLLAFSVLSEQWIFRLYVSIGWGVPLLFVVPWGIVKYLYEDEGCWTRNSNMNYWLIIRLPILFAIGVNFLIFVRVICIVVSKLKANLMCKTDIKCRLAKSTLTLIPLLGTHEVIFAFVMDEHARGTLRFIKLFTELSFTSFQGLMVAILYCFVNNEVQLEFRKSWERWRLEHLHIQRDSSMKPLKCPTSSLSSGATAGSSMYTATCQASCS

Molecule: CSCC[C@H](NC(=O)[C@H](CC(C)C)NC(=O)[C@H](Cc1c[nH]c2ccccc12)NC(=O)[C@H](CCC(N)=O)NC(=O)[C@@H](NC(=O)[C@H](Cc1ccccc1)NC(=O)[C@H](CCC(=O)O)NC(=O)[C@@H]1CCCCNC(=O)CC[C@H](NC(=O)[C@H](CC(=O)O)NC(=O)[C@H](CC(C)C)NC(=O)[C@H](Cc2ccc(O)cc2)NC(=O)[C@H](CCCCN)NC(=O)[C@H](CO)NC(=O)[C@H](Cc2ccc(O)cc2)NC(=O)[C@H](CC(=O)O)NC(=O)[C@H](CO)NC(=O)[C@@H](NC(=O)[C@H](Cc2ccccc2)NC(=O)[C@@H](NC(=O)CNC(=O)[C@H](CCC(N)=O)NC(=O)C(C)(C)NC(=O)[C@@H](N)Cc2c[nH]cn2)[C@@H](C)O)[C@@H](C)O)C(=O)N[C@@H](CCC(N)=O)C(=O)N[C@@H](C)C(=O)N[C@@H](C)C(=O)N1)C(C)C)C(=O)N[C@@H](CC(N)=O)C(=O)N[C@H](C(=O)N[C@@H](CS)C(=O)O)[C@@H](C)O [Example 1] (H-H[Aib]QGTFTSDYSKYLDEQAAKEFVQWLMNTC-OH; lactam 16-20 (inferred); N-terminus and C-terminus assumed)
- EC50 [1]: 0.13 nM
- anti-obesity effect [2]: had an anti-obesity effect

Molecule: CCCCCCCCCCC[C@@H](C[C@@H]1OC(=O)[C@H]1CCCCCC)OC(=O)[C@H](CC(C)C)NC=O [tetrahydrolipstatin (orlistat), tetrahydrolipstatin]
- inhibition of absorption of ingested fats [3]: approximately 30%

Molecule: Example 6: Conjugate of polypeptide H(Aib)QGTFTSDYSKYLDEEAVKEFVQWLMNTC (SEQ ID NO. 4) and tri-branched mPEG-MAL (MW: 50 kDa) (H[Aib]QGTFTSDYSKYLDEEAVKEFVQWLMNTC; not fully specified (residue 30, bridges); printed as H(Aib)QGTFTSDYSKYLDEEAVKEFVQWLMNTC; also: conjugate with tri-branched mPEG-MAL 50 kDa)
- increase in blood glucose in ipGTT vs control [4]: an increase in blood glucose was significantly reduced
- level of blood glucose vs control [5]: a level of blood glucose was lowered
